Data taken from patent US8278355B2, “Isovaline for treatment of pain” (Therexcell Pharma Inc., priority 2006, dated 2012).

Experiments:
[1] = tested on: pain of formalin injection in the mouse foot; experiment: Formalin hindpaw licking test, intravenous pre-treatment; format: in vivo, mice; details: for analgesia in peripherally induced pain, intravenous administration: overall summary
Procedure: Groups of mice (n=10) were injected intravenously with a dose of 500 mg/kg of compound (Ia) at 10 minutes prior to subcutaneous formalin injection into the right hindpaw. After the injection of formalin (5% in 20 microliters), the animals were monitored for 40 min for licking activity.

[2] = tested on: strychnine-induced allodynia; format: in vivo, mouse; details: for effect on hyperalgesia or allodynia (vocalization, flinching, scratching): 4 millimolar with strychnine 200 micromolar in 5 microliters aCSF, p<0.01; for effect on hyperalgesia or allodynia (vocalization, flinching, scratching) / behavior of mice treated with compound and strychnine / side effects in treated animals: cisterna magna; for behavior of mice treated with compound and strychnine: 4 millimolar with strychnine 200 micromolar, compared with aCSF control; for side effects in treated animals: 4 millimolar; for analgesia against trigeminal hyperalgesia or allodynia compared with carbamazepine / analgesia against trigeminal hyperalgesia or allodynia compared with morphine: overall summary
Procedure: Strychnine when administered alone to the intact rodent mimics the allodynia of chronic pain resulting from damage to inhibitory amino acid functions in the central nervous system.
In the present example, injections into the cisterna magna of the mouse were performed as described by Reijneveld, Taphoorn, and Voerst (Journal of Neurooncology 42: 137-142, 1999). Each series of experiments consisted of 6 to 9 pairs of mice. […] In each session, two mice were injected with the strychnine solution within one minute of each other. […] A continuous video recording was made of all responses.

[3] = tested on: pain of formalin injection in the mouse foot; experiment: Formalin hindpaw licking test, lumbar intrathecal pre-treatment; format: in vivo, mice; details: for activity against peripherally induced pain, administered to the lumbar cord: overall summary; for cumulative paw licking / licking, early phase (reflecting acute pain) / licking, late phase (reflecting chronic pain): 250 micromolar in 5 microliters, lumbar intrathecal; for cumulative paw licking: 5 minutes before formalin, 40 min, p-value<0.001; for licking, early phase (reflecting acute pain) / licking, late phase (reflecting chronic pain): FIG. 4
Procedure: The effects of compound (Ib) and (Ic) were determined in the acute and chronic peripheral pain model according to Kolesnikov, Cristea, Oksman, Torosjan, and Wilson (Brain Research 17: 217-223, 2004). Use of this model involves pre-treatment with the test compound and injection of formalin (5% in 20 microliters) into the right hindpaw of mice. Groups of mice (n=10) were injected intrathecally into the lumbar segment with compound (Ib) or (Ic) at 250 micromolar in 5 microliters, at 5 minutes prior to subcutaneous formalin injection into the right hindpaw. The mice were monitored for 40 min for licking activity and assessed according to the method of Abbott, Franklin, and Westbrook (Pain 60: 91-102, 1995).

[4] = tested on: strychnine-induced allodynia; details: lumbar intrathecal
Procedure: Injections into the 6th lumbar intrathecal space were performed according to the method of Hylden and Wilcox (Brain Research 217: 212-215, 1981). The total volume used for injection in all experiments was 5 microliters of artificial cerebrospinal fluid (aCSF). In mice anesthetized with isoflurane, strychnine at 200 micromolar in 5 microliters of aCSF was injected either alone or in combination with compound (Ia) at concentrations of 4 to 8 millimolar in a total volume of 5 microliters of aCSF. In each experiment 2 mice were injected with 5 microliters of solution within one minute of each other. One of the mice received strychnine 200 micromolar in aCSF (control) and the other received the same volume with strychnine 200 micromolar in combination with the test compound (Ia). The mice were placed in a container designed such that they were unaware of the other, but could be simultaneously observed. The presence of flinching, scratching or vocalization in response to touching with a fine hair was noted every two minutes. Responses limited to lumbar segments 5 and 6, as well as originating from more caudal nerve distribution were considered as positive. A continuous video recording was made of all responses. Each experiment consisted of 6 to 9 pairs of mice. The blinded observer decided which animal had the greatest response to stimuli. A Wilcoxon signed rank test was used to determine the statistical significance of the results.

[5] = Overall behavioral observation of the animals studied; format: in vivo; details: all animals studied
[6] = Rotarod test (ataxia, central toxicity) after intravenous administration; details: for rotarod performance versus control saline and pre- versus post-injection: 500 mg/kg, 3 ml/kg, tail vein, 10 mice per group, ANOVA p<0.05
Procedure: Changes in central nervous system behavior viewed as ataxia were measured using the rotarod procedure in mice, described by Vaupel, McConn, and Cone (Journal of Pharmacology & Experimental Therapeutics, 230: 20-27, 1984). A 27-mm diameter rod was rotated at 5 rpm. At least 1 day before testing, mice were trained in three sessions on the rod for two consecutive 5 minute trials, separated by a 5 minute rest period. During the tests, each trial on the rotarod was limited to a 120 seconds maximum. For all experiments two control trials obtained 6 minutes apart preceded the injection (500 mg/kg, 3 ml/kg) of compound (Ib) or (Ic) into the tail vein. Each mouse was then given 2 trials, with 6 minutes between trials after the injection.
The data were analyzed as means±SEM of 10 mice in each group, and examined by analysis of variance (ANOVA) for multiple comparisons with the single control group. Level of significance was set to 5% (p<0.05).

Structure (SMILES) | effect on hyperalgesia or allodynia (vocalization, flinching, scratching) ([2]; FIG. 1) | behavior of mice treated with compound and strychnine [2] | side effects in treated animals [2] | analgesia against trigeminal hyperalgesia or allodynia compared with carbamazepine [2] | analgesia against trigeminal hyperalgesia or allodynia compared with morphine [2] | activity against peripherally induced pain, administered to the lumbar cord [3] | behavioral toxicity [5] | analgesia in peripherally induced pain, intravenous administration [1] | rotarod performance versus control saline and pre- versus post-injection [6] | cumulative paw licking [3] | licking, early phase (reflecting acute pain) [3] | licking, late phase (reflecting chronic pain) [3] | further results
CCC(C)(N)C(=O)O (racemic) [(Ia), Isovaline (2-Amino-2-methylbutanoic acid)] | a great reduction and a total blockade of hyperalgesia or allodynia | identical to the mice which received the aCSF control injection without strychnine | no side effects such as sedation, movement disorders, or abnormal behavior | surpassed the analgesia produced by carbamazepine | to a much greater degree than the tested reference opioid, morphine | active against acute and chronic pain induced peripherally | no observed behavioral toxicity |  |  |  |  |  | licking, late phase (reflecting chronic pain) ([1]; 500 mg/kg intravenously, 10 minutes before formalin, 10 to 40 minutes, FIG. 5, p<0.001): significantly reduced; pairs of mice in which blinded observer identified presence of compound ([4]; 8 millimolar plus strychnine 200 micromolar, 5 microliter, FIG. 3, p<0.01): 6 out of 6; effect of sole administration (without strychnine) ([4]; 25 microliters at 10 millimolar, no strychnine): did not produce a significant result; duration of effect [4]: at least 60 minutes; sedation, movement disorders, abnormal behaviour in treated animals ([4]; 8 millimolar): no sedation, movement disorders, or abnormal behaviour; behavior of treated mice without concomitant strychnine injection ([4]; no strychnine, compared with aCSF control): identical to those mice that received aCSF control injection
CCC(C)(N)C(=O)O (single isomer, unassigned) [(Ib), Isovaline (2-Amino-2-methylbutanoic acid)] | The same effects were obtained | identical to the mice which received the aCSF control injection without strychnine | no side effects such as sedation, movement disorders, or abnormal behavior | surpassed the analgesia produced by carbamazepine | to a much greater degree than the tested reference opioid, morphine | active against acute and chronic pain induced peripherally | no observed behavioral toxicity | effective in producing analgesia | did not show significant differences | significantly reduced | significantly reduced | significantly reduced | 
CCC(C)(N)C(=O)O (single isomer, unassigned) [(Ic), Isovaline (2-Amino-2-methylbutanoic acid)] | The same effects were obtained | identical to the mice which received the aCSF control injection without strychnine | no side effects such as sedation, movement disorders, or abnormal behavior | surpassed the analgesia produced by carbamazepine | to a much greater degree than the tested reference opioid, morphine | active against acute and chronic pain induced peripherally | no observed behavioral toxicity | effective in producing analgesia | did not show significant differences | significantly reduced | significantly reduced | significantly reduced | 
CCC(C)(N)C(=O)O (centres unmarked) [Formula (I), Isovaline (2-Amino-2-methylbutanoic acid)] |  |  |  |  |  |  |  |  |  |  |  |  | blood-brain-barrier crossing ([1]; inferred from analgesia after intravenous administration): crosses the blood-brain-barrier; central nervous system toxicity, such as ataxia or other disturbances in conscious behavior ([6]; mouse, in vivo): no evidence
NC(=O)N1c2ccccc2C2OC2c2ccccc21 (centres unmarked) [carbamazepine epoxide, reference compound] |  |  |  |  |  |  |  |  |  |  |  |  | analgesic effect ([2]; 30 mg/kg body weight, FIG. 1): an analgesic effect
CN1CC[C@]23c4c5ccc(O)c4O[C@H]2[C@@H](O)C=C[C@H]3[C@H]1C5 [morphine, reference compound] |  |  |  |  |  |  |  |  |  |  |  |  | responses to intracisternal injections (analgesia) ([2]; 1 mg/kg body weight, intracisternal, FIG. 1): poor or absent
